The source of these data is paper PMC11532494 (Nature Communications, 2024).

Several values for one entry are separate records, joined by “and”; a condition that tells them apart may be missing. Equal values may be shown once. Read-outs that look alike come from different tables or passages of the source. A value given as a limit tells only on which side of the number the result lay.

The target in one assay is BsAcuC (Bacillus subtilis, UniProt P39067). Type of assay: biochemical. Conditions: substrate with BsAcuC.
For the next assay, the system named is KpHdaH H144A. In kind it is biochemical, Klebsiella pneumoniae.
A further assay concerns D20-37KpHdaH. In kind it is biochemical, Klebsiella pneumoniae. Conditions: substrate with D20-37KpHdaH (L1-loop deletion).
Assay [1] deals with T1, BsAcuC (2c) (Bacillus subtilis, UniProt P39067).
T1 construct: made in house; host or cells: E. coli BL21 (DE3)
T1 sequence (P39067 1-387): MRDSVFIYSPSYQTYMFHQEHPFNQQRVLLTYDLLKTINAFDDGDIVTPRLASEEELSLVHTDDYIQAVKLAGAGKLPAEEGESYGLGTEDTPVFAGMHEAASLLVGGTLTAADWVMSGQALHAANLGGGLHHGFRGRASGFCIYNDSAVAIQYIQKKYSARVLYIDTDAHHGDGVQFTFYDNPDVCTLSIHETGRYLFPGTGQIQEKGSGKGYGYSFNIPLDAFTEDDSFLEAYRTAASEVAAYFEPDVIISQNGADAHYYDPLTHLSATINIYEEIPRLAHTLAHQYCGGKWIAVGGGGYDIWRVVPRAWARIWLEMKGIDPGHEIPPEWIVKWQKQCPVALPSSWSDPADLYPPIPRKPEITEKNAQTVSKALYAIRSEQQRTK
As to the kind of experiment: Dose-response inhibition assay. In kind it is biochemical. Conditions: 40 µM LGKac; for IC50: 200 nM enzyme, 30 min, 37 °C. The source says: Data was transformed to relative enzyme activity (%) compared to control wells without inhibitor, and fitted to sigmoidal functions with variable slope (Eqs. 3, 4 parameters, h: Hill slope) to afford IC50 values. Assuming fast-on/fast-off competitive inhibition, the Cheng–Prusoff equation (Eq. 4) was employed to transform IC50 data into inhibitory constants (Ki), with KM values as determined previously.3 Res.activity=Res.activitybottom+Res.activitytop−Res.activitybottom/1+10^(logIC50−logI)h 4 Ki=IC50/1+[S]/KM

Assay [2] concerns the target T2, KpHdaH (1b) (Klebsiella pneumoniae, UniProt A0A377Z5F6). As to the kind of experiment: biochemical. The note with it: for IC50: 15 nM enzyme, 60 min, 37 °C.
The next assay concerns the target LcApaH (3) (Legionella cherrii, UniProt A0A0W0SGS1). As to the kind of experiment: biochemical. Conditions: for IC50: 0.5 nM enzyme, 30 min, 37 °C.
A further assay has as its target LpApaH (3) (Legionella pneumophila, UniProt A0A2S6EWV0). As to the kind of experiment: biochemical.
Assay [3] deals with T3, RwDmhA (1b) (Rhizorhabdus wittichii, UniProt A0A067XIQ6). As to the kind of experiment: biochemical. Conditions: for IC50: 30 nM enzyme, 60 min, 37 °C.
The target of the next assay is (UniProt A0A2N0XRJ0). As to the kind of experiment: biochemical. The arrangement: species or system Vibrio sp. Conditions: for IC50: 60 µM QPKKac, 1.5 nM enzyme, 60 min, 37 °C.
In assay [4] the target is T1, BsAcuC (2c). As to the kind of experiment: Inhibitor screening assay (10 µM or 1 µM). Type of assay: biochemical. Conditions: pre-screening at 10 µM or 1 µM inhibitor. From the text:
Data was transformed to relative enzyme activity (%) compared to control wells without inhibitors.

Assay [5] addresses T2, KpHdaH (1b). As to the kind of experiment: biochemical. The note with it: for remaining activity at 1 µM: inhibitor 1 µM; for remaining activity at 10 µM: inhibitor 10 µM.
For assay [6], the target named is T3, RwDmhA (1b). As to the kind of experiment: biochemical. Conditions: for remaining activity at 1 µM: inhibitor 1 µM.
For another assay, the system named is VcHdaH (5b). Conditions: VcHdaH (5b)+TSA control; for RFU: 20 nM enzyme, 37 °C, single replicates; for RFU, mean: mean of n = 3.
The next assay has as its system HsHDAC11 (5f). Conditions: cited from earlier work.
The target of a further assay is PsApaH (4) (Pseudomonas sp. M30-35, UniProt A0A1Y0KY79). As to the kind of experiment: biochemical.
The mark [7] stands for this setting: decadic log of IC50, read-out: Log[IC50(M)] (converted).
[8] abbreviates: Log[IC50(M)], decadic log of IC50, 60 µM QPKKac.

Take `CC(=O)NCCCC[C@H](NC(=O)OC(C)(C)C)C(=O)Nc1ccc2c(C)cc(=O)oc2c1` [Boc-Lys(Ac)-AMC]: the AMC fluorescence amounted to 768 a.u at BsAcuC, 2059 a.u in the assay on KpHdaH H144A (substrate with KpHdaH H144A (first of two columns with this head)), 31 a.u in the assay with KpHdaH H144A (substrate with KpHdaH H144A (second of two columns with this head)) and 1597 a.u with D20-37KpHdaH.
The term IC50 denotes the concentration that inhibits the measured activity by half. As a reminder, the Ki is a dissociation constant, usually derived from enzyme kinetics or from competition with a known ligand. The remaining activity is the signal under treatment as a percentage of the control signal. With `CC(/C=C/C(=O)NO)=C\[C@@H](C)C(=O)c1ccc(N(C)C)cc1` [TSA, trichostatin A], the IC50 is 5.93e-07 M at BsAcuC (2c) [1] (read-out: IC50); 6.31e-07 M at BsAcuC (2c) [1] (setting [7]); at most 1.07e-08 M on KpHdaH (1b) [2] (IC50, 60 µM QPKKac); at most 1.07e-08 M against KpHdaH (1b) [2] (setting [8]); 1.04e-08 M at LcApaH (3) (IC50, 40 µM LGKac); 1.05e-08 M on LcApaH (3) (Log[IC50(M)], decadic log of IC50, 40 µM LGKac). The IC50 is 7.17e-09 M at LpApaH (3) (IC50); 7.94e-09 M against LpApaH (3) (Log[IC50(M)]); 8.65e-07 M against RwDmhA (1b) [3] (IC50, 60 µM QPKKac); 8.71e-07 M at RwDmhA (1b) [3] (setting [8]); 2.54e-08 M at (UniProt A0A2N0XRJ0) (read-out: IC50); 2.51e-08 M at (UniProt A0A2N0XRJ0) (setting [7]). At PsApaH (4), this compound returned an IC50 of at most 18.1 nM. For the same compound, the Ki at BsAcuC (2c) [1] (calculated using the Cheng–Prusoff equation) is 400 nM; on KpHdaH (1b) [2] (Ki, calculated using the Cheng–Prusoff equation, 60 µM QPKKac), at most 2.47 nM; at LcApaH (3) (Ki, calculated using the Cheng–Prusoff equation, 40 µM LGKac) it was 3.95 nM; on LpApaH (3) (Ki), 2.47 nM; at RwDmhA (1b) [3], 356 nM; on (UniProt A0A2N0XRJ0) it was 11.1 nM. Besides, the inhibition constant (Ki) at PsApaH (4) is at most 7.56 nM. Further, at BsAcuC (2c) [4], the “inhibition of BsAcuC (2c) in the initial screen, in words” value is recorded as “only weakly inhibited”. Besides, the remaining activity at 1 µM on KpHdaH (1b) [5] (individual replicates) was 2.1%; on KpHdaH (1b) [5] (mean), 2.15%; at RwDmhA (1b) [6] (individual replicates), 45.9%; at RwDmhA (1b) [6] (mean), 45.5%. Besides, the remaining activity at 10 µM is -0.2% at KpHdaH (1b) [5] (individual replicates); -0.2% on KpHdaH (1b) [5] (mean); 7.3% at RwDmhA (1b) [6] (inhibitor 10 µM, mean). The RFU in the assay with VcHdaH (5b) (10 µM peptide 2 (S2), 45 min) is 14 RFU and 2 RFU and 59 RFU; in the assay on VcHdaH (5b) (10 µM peptide 2a (S2a), 30 min), -513 RFU and -208 RFU and -504 RFU; in the assay on VcHdaH (5b) (20 µM Boc-Lys(Ac)-AMC, 30 min), 8 RFU and -7 RFU and -73 RFU. Moreover, the “RFU, mean” value was 25 RFU in the assay with VcHdaH (5b) (10 µM peptide 2 (S2)), -408 RFU in the assay with VcHdaH (5b) (10 µM peptide 2a (S2a)) and -24 RFU in the assay on VcHdaH (5b) (20 µM Boc-Lys(Ac)-AMC). Besides, the “inhibition of HsHDAC11 (5f), in words” value in the assay with HsHDAC11 (5f) is recorded as “only weakly inhibited”.
